Assays:
[1] = Preformulation solubility in vehicles; type: physicochemical
Method: Preformulation studies of swainsonine hydrochloride, bulk drug substance, and in combination with powder and semisolid fill gelatin capsules were conducted with respect to the following: hygroscopicity, pH, stability, and solubility. […] At 20% and 50% RH it absorbed 1.9% and 2.1% of water by Karl Fischer after 48 hours of storage. The moisture uptake diminishes when anhydrous powder excipients (e.g. lactose anhydrous and mannitol powder) are used to formulate the pharmaceutical active into a hard capsule.
Therefore for soft gelatin capsule formulations hydrophilic vehicles are preferred. The use of a co-solvent such as glycerin or propylene glycol in PEGs may be feasible for liquid or semisolid fills.

[2] = tested on: SP1.A3a mouse mammary carcinoma cells; assay: Growth factor dependent proliferation of SP1.A3a cells in vitro (tritiated thymidine); type: cell-based; settings: 0.2 μg/ml, FIG. 7
Method: SP1.A3a mouse mammary carcinoma cells were grown for 24 hours in culture medium containing 10% bovine serum, with and without swainsonine hydrochloride at a concentration of 0.2 μg/ml. In the following 24 hours cells were maintained in serum-free medium (SFM) with and without swainsonine hydrochloride. Cells were then grown in the absence of growth factors for 6 hours, or exposed to one of the following growth factors: TNFα (tumor necrosis factor-α), TGFβ1 (transforming growth factor-β), TGFα, platelet-derived growth factor (PDGF), epidermal growth factor (EGF). Tritiated thymidine was added for a final 18 hours, cells were harvested using a multiple-cell harvester and radioactivity was measured in a β-counter as a measure of cell proliferation.

[3] = tested on: SP1.A3a mouse mammary adenocarcinoma; assay: SP1.A3a tumor growth in mice, oral administration in drinking water; type: in vivo, CBA/J mice
Method: The experiment was repeated using swainsonine hydrochloride administered in drinking water. SP1.A3a mouse mammary adenocarcinoma were maintained in exponential growth in RPMI 1640 medium containing 10% FBS. The cells were harvested and re-suspended at 3×10^5/ml in PBS and 0.1 ml containing 3×10^4 cells injected S.C. into the right flank of 7 week old female CBA/J mice (Jackson Laboratories) (n=25). The mice were subsequently supplied with drinking water alone (n=13) or drinking water containing 10 μg/ml swainsonine hydrochloride (n=12) (equivalent to a dose of 2 mg/kg/day).
Once a palpable tumor was evident, tumor size was measured twice a week using vernier callipers. At the end of the treatment period the tumors were excised and weighed.

[4] = tested on: early erythroid progenitor cells (CFU-E); assay: Murine bone marrow progenitor cell assay in methylcellulose, CFU-E; type: cell-based, C57BL/6 mice
Method: Pathogen-free C57BL/6 female mice, 8-9 weeks old, obtained from Jackson Laboratories were used. The room environment and photoperiod were controlled: 24° C.; humidity, 50±20%; 12 hr light and 12 hr dark. Mice were housed one per cage with ad libitum accesses to standard pelleted commercial laboratory diet and to sterile (autoclaved) tap water.
Swainsonine hydrochloride was manufactured by Seres Laboratories, Calif. FBS and methylcellulose (MethoCult M3330) were purchased from Stem Cell Technologies, Inc. (Vancouver. BC). Iscove's modified Dulbecco's medium was prepared using powdered media from Gibco BRL, deionized water and filter sterilization. For the handling of cells, the media was supplemented with 2% FBS and 50 μM β-mercaptoethanol (referred to as IMDM/FBS).
The healthy and GD0039 treated mice were euthanized by CO2 asphyxiation. Bone marrow (BM) cell suspensions were prepared under sterile conditions by flushing both femurs and tibiae with IMDM/FBS using a 26 gauge needle. Single cell suspensions were made up to 10.0 ml IMDM/FBS. The concentration of nucleated cells in each suspension was determined by triplicate counts on a hemocytometer. A portion of the cells was further diluted in media to the appropriate concentration before plating for the progenitor assay.
Colony-forming units (CFUs) were estimated by the methylcellulose method. One milliliter suspensions, containing 2×10^5 nucleated BM cells, in 0.1 ml of IMDM and 0.9 ml MethoCult (M3330), were plated in triplicate in 35 mm tissue culture dishes. […] The MethoCult M3330 contains 30% FBS and 10 μg/ml erythropoietin and is designed for the growth of early erythroid progenitor cells (CFU-E), which were scored after 3 days of incubation at 37° C. in a humidified atmosphere containing 5% CO2. […] Colonies containing more than 20 cells were scored using an inverted microscope with brightfield optics and 40× or 100× magnification.

[5] = Toxicology studies (acute and chronic); type: in vivo
Method: Pharmacological and toxicological studies were conducted with swainsonine hydrochloride. In particular, the following were investigated: (a) pharmacokinetics of the compound in rats and monkeys; (b) acute toxicity at significant multiples of the intended human dose; (c) the toxicity profile of the compound was compared to the literature profile for swainsonine free base; (d) potential for genotoxicity; (e) time course, dose-dependence, tissue sensitivity and reversibility of oligosaccharide accumulation in tissue; and (f) serum AST and relationship to liver histology.

STAT3 = STAT3 level in mice (Western blot); type: in vivo, DBA/2 mice; settings: 20 μg/day ip, spleen
Method: To measure the level and activation of STATs, DBA/2 mice are treated for 6-9 days with 20 μg/mouse/day of swainsonine hydrochloride followed by a single intraperitoneal (i.p) injection of either sterile saline or 100 μg of poly IC (i.e., dsRNA, a surrogate for virus) in sterile saline. Two hours later an optimal time for STAT activation, spleens of the mice are homogenized and cytosolic and nuclear cell extracts are prepared. STAT protein levels are measured in the cytosolic and nuclear fractions by Western blot analysis. STAT phosphorylation (i.e. activation) is measured following immunoprecipitation using anti-phosphotyrosine antibodies.

## Cl.O[C@H]1[C@H]2[C@H](O)CCCN2C[C@@H]1O [swainsonine hydrochloride, (−)-(1S,2S,8R,8aR)-1,2,8-trihydroxyoctahydro-indolizidine hydrochloride salt]
[1]
  solubility in aqueous and hydrophilic vehicles: highly soluble
[2]
  TGF-β1 and TNF-α dependent growth stimulation of SP1.A3a cells: suppresses
[3]; 10 μg/ml in drinking water (2 mg/kg/day), FIG. 9
  tumor growth versus control mice: slower growing tumors
[3]; 10 μg/ml in drinking water, at 31 days, untreated 3.33 g
  mean tumor weight: 1.79 g
[4]; 0.03 μg/ml to 10 μg/ml in vitro
  increase in the number of early CFU-E: ~3 fold
[4]; added to methylcellulose in vitro
  number of early CFU-E, counted on day 3: significantly increased
[4]; mouse 1 (control), 0.3 μg/ml in vitro, in vitro control 54 ± 12
  mean CFU-E of triplicate counts ± SD from 2 × 10^5 nucleated BM cells: 75 ± 16
[4]; mouse 1 (control), 3 μg/ml in vitro, in vitro control 54 ± 12
  mean CFU-E of triplicate counts ± SD from 2 × 10^5 nucleated BM cells: 87 ± 16
[4]; mouse 2 (GD0039 treated in vivo, 20 μg/day for four days), 0.3 μg/ml in vitro
  mean CFU-E of triplicate counts ± SD from 2 × 10^5 nucleated BM cells: 97 ± 4
[4]; mouse 2 (GD0039 treated in vivo, 20 μg/day for four days), 3 μg/ml in vitro
  mean CFU-E of triplicate counts ± SD from 2 × 10^5 nucleated BM cells: 127 ± 18
[4]; mouse 2 (GD0039 treated in vivo, 20 μg/day for four days), no treatment in vitro
  mean CFU-E of triplicate counts ± SD from 2 × 10^5 nucleated BM cells: 22 ± 5
[5]; acute toxicity
  dose at which acute toxicity occurs: 13,000 times the intended human dose
[5]; chronic studies, doses proposed for humans
  sites of oligomannoside accumulation in lysosomes: thyroid and also possibly the kidney could be the sites of reversible accumulation
STAT3
  STAT3 cytosolic protein levels: remained unchanged

Reference: US6395745B1, “Alkaloid halide salts of swainsonine and methods of use” (priority 1997, dated 2002)
